According to PubChem BioAssay (NCI):
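The compound was tested at five concentrations on cells cultured in 96-well plates, with a 48-hour exposure period. The concentration for full growth arrest is given as TGI.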

Legend:
Experiment in all cases: NCI anticancer screen, dose series, 48 h
786-0 renal = system: 786-0 renal
A498 renal = system: A498 renal
A549 NSCLC = system: A549 NSCLC
ACHN renal = system: ACHN renal
BT-549 breast = system: BT-549 breast
CAKI-1 renal = system: CAKI-1 renal
CCRF-CEM leukemia = system: CCRF-CEM leukemia
COLO 205 colon = system: COLO 205 colon
DLD-1 colon = system: DLD-1 colon
DMS 114 small cell lung = system: DMS 114 small cell lung
DU-145 prostate = system: DU-145 prostate
EKVX NSCLC = system: EKVX NSCLC
HCC-2998 colon = system: HCC-2998 colon
HCT-116 colon = system: HCT-116 colon
HCT-15 colon = system: HCT-15 colon
HL-60(TB) leukemia = system: HL-60(TB) leukemia
HOP-18 NSCLC = system: HOP-18 NSCLC
HOP-62 NSCLC = system: HOP-62 NSCLC
HOP-92 NSCLC = system: HOP-92 NSCLC
HS 578T breast = system: HS 578T breast
HT29 colon = system: HT29 colon
IGROV1 ovarian = system: IGROV1 ovarian
K-562 leukemia = system: K-562 leukemia
KM12 colon = system: KM12 colon
KM20L2 colon = system: KM20L2 colon
LOX IMVI melanoma = system: LOX IMVI melanoma
LXFL 529 NSCLC = system: LXFL 529 NSCLC
M14 melanoma = system: M14 melanoma
MALME-3M melanoma = system: MALME-3M melanoma
MCF7 breast = system: MCF7 breast
MDA-MB-231 breast = system: MDA-MB-231 breast
MDA-MB-435 = system: MDA-MB-435
MDA-N = system: MDA-N
MOLT-4 leukemia = system: MOLT-4 leukemia
NCI-H226 lung = system: NCI-H226 lung
NCI-H23 lung = system: NCI-H23 lung
NCI-H460 lung = system: NCI-H460 lung
NCI-H522 lung = system: NCI-H522 lung
NCI/ADR-RES ovarian = system: NCI/ADR-RES ovarian
OVCAR-3 ovarian = system: OVCAR-3 ovarian
OVCAR-4 ovarian = system: OVCAR-4 ovarian
OVCAR-5 ovarian = system: OVCAR-5 ovarian
OVCAR-8 ovarian = system: OVCAR-8 ovarian
PC-3 prostate = system: PC-3 prostate
RPMI-8226 leukemia = system: RPMI-8226 leukemia
RXF 393 renal = system: RXF 393 renal
SF-268 CNS = system: SF-268 CNS
SF-295 CNS = system: SF-295 CNS
SF-539 CNS = system: SF-539 CNS
SK-MEL-2 melanoma = system: SK-MEL-2 melanoma
SK-MEL-28 melanoma = system: SK-MEL-28 melanoma
SK-MEL-5 melanoma = system: SK-MEL-5 melanoma
SK-OV-3 ovarian = system: SK-OV-3 ovarian
SN12C renal = system: SN12C renal
SNB-19 CNS = system: SNB-19 CNS
SNB-75 CNS = system: SNB-75 CNS
SNB-78 CNS = system: SNB-78 CNS
SR leukemia = system: SR leukemia
SW-620 colon = system: SW-620 colon
T-47D breast = system: T-47D breast
TK-10 renal = system: TK-10 renal
U251 CNS = system: U251 CNS
UACC-257 melanoma = system: UACC-257 melanoma
UACC-62 melanoma = system: UACC-62 melanoma
UO-31 renal = system: UO-31 renal
DMS 273 small cell lung = system: DMS 273 small cell lung
M19-MEL melanoma = system: M19-MEL melanoma

Compound: CN(C)CCNc1ccc2nnn3c4ccc(O)cc4c(=O)c1c23
- TGI (786-0 renal): 15.4 µM
- TGI (A498 renal): 12.1 µM
- TGI (A549 NSCLC): 13 µM
- TGI (ACHN renal): 26.1 µM
- TGI (BT-549 breast): 28.5 µM
- TGI (CAKI-1 renal): 20 µM
- TGI (CCRF-CEM leukemia): 32.9 µM
- TGI (COLO 205 colon): 18.2 µM
- TGI (DLD-1 colon): 22.7 µM
- TGI (DMS 114 small cell lung): 20.9 µM
- TGI (DU-145 prostate): 18.6 µM
- TGI (EKVX NSCLC): 18.5 µM
- TGI (HCC-2998 colon): 19.6 µM
- TGI (HCT-116 colon): 13.5 µM
- TGI (HCT-15 colon): 13.4 µM
- TGI (HL-60(TB) leukemia): 23.6 µM
- TGI (HOP-18 NSCLC): 50.5 µM
- TGI (HOP-62 NSCLC): 17.2 µM
- TGI (HOP-92 NSCLC): 26.5 µM
- TGI (HS 578T breast): 11.5 µM
- TGI (HT29 colon): 16.1 µM
- TGI (IGROV1 ovarian): 17.2 µM
- TGI (K-562 leukemia): > 37.7 µM
- TGI (KM12 colon): 13.5 µM
- TGI (KM20L2 colon): 22.7 µM
- TGI (LOX IMVI melanoma): 6.41 µM
- TGI (LXFL 529 NSCLC): 19 µM
- TGI (M14 melanoma): 21.2 µM
- TGI (MALME-3M melanoma): 19.5 µM
- TGI (MCF7 breast): 16 µM
- TGI (MDA-MB-231 breast): 4.81 µM
- TGI (MDA-MB-435): 17.1 µM
- TGI (MDA-N): 15 µM
- TGI (MOLT-4 leukemia): 9.56 µM
- TGI (NCI-H226 lung): 23.6 µM
- TGI (NCI-H23 lung): 17.3 µM
- TGI (NCI-H460 lung): 11.4 µM
- TGI (NCI-H522 lung): 18.8 µM
- TGI (NCI/ADR-RES ovarian): 12.6 µM
- TGI (OVCAR-3 ovarian): 27.8 µM
- TGI (OVCAR-4 ovarian): 9.63 µM
- TGI (OVCAR-5 ovarian): 19.9 µM
- TGI (OVCAR-8 ovarian): 16.8 µM
- TGI (PC-3 prostate): 12.1 µM
- TGI (RPMI-8226 leukemia): 24.6 µM
- TGI (RXF 393 renal): 14.3 µM
- TGI (SF-268 CNS): 20.7 µM
- TGI (SF-295 CNS): 15.3 µM
- TGI (SF-539 CNS): 15.6 µM
- TGI (SK-MEL-2 melanoma): 22.6 µM
- TGI (SK-MEL-28 melanoma): 23.4 µM
- TGI (SK-MEL-5 melanoma): 12.2 µM
- TGI (SK-OV-3 ovarian): 29.7 µM
- TGI (SN12C renal): 23.9 µM
- TGI (SNB-19 CNS): 31.8 µM
- TGI (SNB-75 CNS): 32.1 µM
- TGI (SNB-78 CNS): 31.7 µM
- TGI (SR leukemia): 16.4 µM
- TGI (SW-620 colon): 15.6 µM
- TGI (T-47D breast): 27.1 µM
- TGI (TK-10 renal): 31.9 µM
- TGI (U251 CNS): 16.2 µM
- TGI (UACC-257 melanoma): 22.2 µM
- TGI (UACC-62 melanoma): 19.7 µM
- TGI (UO-31 renal): 13.8 µM

Compound: O=C(Nc1ccccc1SC(/C=C/NNC1=NC(c2ccccc2)C(c2ccccc2)=NN1)c1ccccc1)c1ccc(Cl)cc1Cl (centres undefined)
- TGI (786-0 renal): > 100 µM
- TGI (A498 renal): > 100 µM
- TGI (A549 NSCLC): > 100 µM
- TGI (ACHN renal): > 100 µM
- TGI (CCRF-CEM leukemia): > 100 µM
- TGI (COLO 205 colon): > 100 µM
- TGI (DLD-1 colon): > 100 µM
- TGI (DMS 114 small cell lung): > 100 µM
- TGI (DMS 273 small cell lung): > 100 µM
- TGI (EKVX NSCLC): > 100 µM
- TGI (HCC-2998 colon): > 100 µM
- TGI (HCT-15 colon): > 100 µM
- TGI (HL-60(TB) leukemia): > 100 µM
- TGI (HOP-62 NSCLC): 73.5 µM
- TGI (HT29 colon): > 100 µM
- TGI (IGROV1 ovarian): > 100 µM
- TGI (K-562 leukemia): > 100 µM
- TGI (KM12 colon): > 100 µM
- TGI (KM20L2 colon): > 100 µM
- TGI (LOX IMVI melanoma): > 100 µM
- TGI (M19-MEL melanoma): > 100 µM
- TGI (MALME-3M melanoma): > 100 µM
- TGI (NCI-H226 lung): 99.6 µM
- TGI (NCI-H23 lung): 55.6 µM
- TGI (NCI-H460 lung): > 100 µM
- TGI (NCI-H522 lung): > 100 µM
- TGI (OVCAR-3 ovarian): > 100 µM
- TGI (OVCAR-4 ovarian): 94.8 µM
- TGI (OVCAR-5 ovarian): > 100 µM
- TGI (OVCAR-8 ovarian): > 100 µM
- TGI (RPMI-8226 leukemia): > 100 µM
- TGI (RXF 393 renal): > 100 µM
- TGI (SF-268 CNS): > 100 µM
- TGI (SF-295 CNS): > 100 µM
- TGI (SF-539 CNS): 60.2 µM
- TGI (SK-MEL-2 melanoma): 45.6 µM
- TGI (SK-MEL-28 melanoma): > 100 µM
- TGI (SK-MEL-5 melanoma): > 100 µM
- TGI (SK-OV-3 ovarian): > 100 µM
- TGI (SN12C renal): > 100 µM
- TGI (SNB-19 CNS): > 100 µM
- TGI (SNB-75 CNS): > 100 µM
- TGI (SNB-78 CNS): > 100 µM
- TGI (SW-620 colon): > 100 µM
- TGI (TK-10 renal): > 100 µM
- TGI (U251 CNS): 64.6 µM
- TGI (UACC-257 melanoma): > 100 µM
- TGI (UACC-62 melanoma): > 100 µM
- TGI (UO-31 renal): 94.6 µM
